{"source": "patent US9480695B2", "about": "“Methods for inducing orexin neurons and agent for treating narcolepsy or eating disorder” (THE UNIVERSITY OF TOKYO, priority 2011, dated 2016)", "type_in_all_cases": "cell-based", "key": {"[1]": {"system": "Mouse ES cells (J1 strain)", "experiment": "Induction of Hcrt expression in neural differentiation from mouse ES cells, SDIA differentiation culture system, RT-PCR", "protocol": "Mouse ES cells (J1 strain) which had been maintained in a medium for an ES cell [DMEM (Wako) added with 15% FBS (Biowest), 1 mM sodium pyruvate (Invitrogen), […] (Invitrogen), 2 mM L-glutamine (Invitrogen), 1 mM non essential amino acid (Invitrogen), 50 U/ml penicillin/50 μg/ml streptomycin (Invitrogen), 2000 U leukemia inhibitory factor (Chemicon, CA)] were seeded on a 10 cm culture dish so that the cell count became 1×10^5 cells per culture dish on which PA6 stromal cells had been seeded in advance, and differentiation induction was performed in a medium for neural differentiation [Glasgow MEM (Invitrogen) added with 10% KSR (Invitrogen), […] (Invitrogen), 1 mM non essential amino acid (Invitrogen), 50 U/ml penicillin/50 μg/ml streptomycin (Invitrogen)] for 10 days. On 4th and 7th days of differentiation culturing, the medium was exchanged. In addition, from 4th day of differentiation culturing, 5 nM recombinant human BMP4 (Wako) was added (FIG. 1). On 10th day of differentiation culturing, cells were collected and pelletized by a centrifugation operation to remove the culture medium. Thereafter, the pellets were immediately frozen in liquid nitrogen and stored at −80° C. until use.\nThe total RNA was extracted from the collected cells using RNeasy plus Mini Kit (QIAGEN). Then, a reverse transcription reaction was performed in a reaction liquid containing 1 μg of the total RNA, and Oligo (dT) using SuperScript III First Strand Synthesis System (Invitrogen) to synthesize a cDNA.\nA PCR reaction was performed on a 10 μl scale, 1 U of LA-Taq DNA Polymerase (Takara) was added to 0.5 μl of a cDNA, 5 μl of 2×GC Buffer I, each 200 μM of dNTP, 1.5 mM MgCl2, and each primer having a final concentration of 0.2 μM, thermal denaturation was performed at 95° C. for 3 minutes, and the reaction was performed under the condition of (30 seconds at 95° C., 30 seconds at 55° C., and 30 seconds at 72° C.)×35 cycles (20 cycles in the case of Actb). The primers used are shown below.\nEach PCR product was electrophoresed on a 2% agarose gel, stained with ethidium bromide, and a band was observed by UV irradiation."}, "[2]": {"system": "Mouse ES cells (J1 strain)", "experiment": "Hcrt expression in mouse ES cells, SFEB/gfCDM differentiation culture system, RT-PCR", "details": "1.0 mM from 7th day of differentiation culturing", "protocol": "Mouse ES cells (J1 strain) which had been maintained in a medium for an ES cell were seeded on a 96-well low adhering round-bottom culture dish (Nunc) so that the cell count became 10,000 cells per well, and cultured with gfCDM [IMDM/F12 (Invitrogen) added with 5 mg/ml BSA (SIGMA), 450 μM Monothioglycerol (Wako), 1× chemically defined lipid concentrate (Invitrogen), 50 U/ml penicillin/50 μg/ml streptomycin] for 7 days. The cells were cultured in 150 μl of a medium per well. On 7th day of differentiation culturing, the medium was exchanged with a DFK medium [DMEM/F12 (Invitrogen) added with 7 g/1 glucose, 10% KSR, 50 U/ml penicillin/50 μg/ml streptomycin], and on 10th day, half the amount of the medium was exchanged with a DFNB medium [7 g/1 glucose, 1×N2 (Wako), 1×B27 (Invitrogen)] containing 10 ng/ml CNTF. On 13th day of culturing, cells were detached with 0.05% trypsin/EDTA, seeded on a culture dish (Falcon) which had been treated with poly-D-lysine/laminin so that the cell count became 4.8×10^6 cells per 10 cm culture dish, and cultured in a DFNB medium containing 10% FBS, 10 ng/ml CNTF, 50 ng/ml BDNF and 50 ng/ml NT3. The medium was exchanged every 3 days. On 25th day of differentiation culturing, cells were collected and pelletized by a centrifugation operation to remove the culture medium. Thereafter, the pellets were immediately frozen in liquid nitrogen, and stored at −80° C. until use.\nThe analysis was performed by the same method as that of Example 1."}, "[3]": {"system": "human iPS cell strain 201B7", "experiment": "Hcrt expression with ManNAc plus Sirt inhibitor and Ogt inhibitor, neural differentiation from human iPS cell, RT-PCR", "details": "ManNAc 1.0 mM from 0th day, EX-527 50 nM and/or BADGP 5 mM on 14th day, collected 20th day; FIG. 10", "protocol": "A human iPS cell strain 201B7 (HSP0001) was obtained from Riken BioResource Center via National BioResource Project (MEXT, Japan). The human iPS cell was maintained on a feeder layer of a mitomycin C-treated STO/Neo resistant/LIF (SNL) feeder cell in a primate ES medium (ReproCELL) complemented with 5 ng/mL recombinant human bFGF (Wako). The human iPS cell was co-cultured with PA6 for 20 days, for differentiation induction into a nerve with a SIDA and BMP4 system. From 7th day, 5 nM BMP4 was complemented. A detailed protocol of differentiation induction into a nerve cell is shown in the lower column of FIG. 11. From the initiation of differentiation culturing (0th day), ManNAc was added to a neural differentiation medium so that the concentration became 1.0 mM, and on 7th, 10th and 14th days of differentiation culturing, the medium was exchanged. In addition, from 7th day of differentiation culturing, 5 nM recombinant human BMP4 (Wako) was added. On 14th day of differentiation culturing, EX-527 (SIGMA-ALDRICH) was added to a neural differentiation medium so that the concentration became 50 nM, or BADGP (SIGMA-ALDRICH) was added to a neural differentiation medium so that the concentration became 5 mM, and on 20th day of differentiation culturing, cells were collected and subjected to RT-PCR. The conditions of RT-PCR are the same as those of Example 1."}, "[4]": {"system": "human-derived pluripotent stem cell", "experiment": "Hcrt expression in human-derived pluripotent stem cell (similar effect to Experiment 1)", "details": "stated as similar to Experiment 1"}}}
{"smiles": "CC(=O)N[C@@H]1C(O)O[C@H](CO)[C@@H](O)[C@@H]1O", "note": "(stereo partly drawn) [ManNAc, N-acetyl-D-mannosamine]", "values": [{"measurement": "Level of Hcrt expression by addition period", "setting": "[1]; 1.0 mM ManNAc, added on 4th to 10th, 7th to 10th and 0th to 10th days versus 0th to 4th and 0th to 7th days", "value": "high expression was observed in the section in which ManNAc was added to a medium on and after 7th day of differentiation"}, {"measurement": "Expression of Hcrt with changed time of addition", "setting": "[1]; 1.0 mM, addition time varied, FIG. 3", "value": "expression of Hcrt was observed only in a ManNAc-added section at any addition time"}, {"measurement": "Expression of an orexin gene (Hcrt)", "setting": "[1]; added from initiation of differentiation culturing at 0.2 and 1.0 mM, cells collected on 10th day, FIG. 2", "value": "expression of Hcrt was recognized only in a ManNAc-added section"}, {"measurement": "Level of Hcrt expression compared with Neu5Ac-added section", "setting": "[2]", "value": "high expression of Hcrt was observed"}, {"measurement": "Expression of Hcrt", "setting": "[2]; cells collected on 25th day, FIG. 5", "value": "expression of Hcrt was recognized"}, {"measurement": "Expression of an orexin gene (Hcrt)", "setting": "[3]", "value": "recognized in a ManNAc-added section and an EX-527-added section to the same extent"}, {"measurement": "Expression of Hcrt in a human-derived pluripotent stem cell", "setting": "[4]", "value": "a similar effect was obtained"}]}
